Reference: US10857151B1, “Treatment of female genital schistosomiasis” (Villya LLC, priority 2020, dated 2020)

Legend:
[1] = system: schistosomiasis worms in the vagina; experiment: Microscope observation of vaginal swab sample slides for schistosomiasis worms in FGS after treatment; assay type: in vivo, human; conditions: after two weeks
Excerpt: A single dose of Praziquantel as described in Example 1 was vaginally inserted into the subject.

[2] = system: blood-borne infection of schistosomiasis; experiment: Blood test for schistosomiasis using Schisto POC-CCA in FGS after treatment; assay type: in vivo, human; conditions: female with FGS; three doses of 20 mg/kg oral praziquantel; after two weeks

For `O=C(C1CCCCC1)N1CC(=O)N2CCc3ccccc3C2C1` (stereo not drawn) [praziquantel], the “observation of vaginal sample from brushing with a swab on microscope slides” value ([1]; female with FGS, three doses of 20 mg/kg oral praziquantel) was “live schistosomiasis worms still in the vagina”, the “slides observed under the microscope for schistosomiasis worms” value ([1]; single dose vaginally inserted as in Example 1 (600 mg praziquantel in 2.5 g K-Y Jelly), same subject after oral treatment) was “negative for schistosomiasis worms” and the “blood retested for schistosomiasis” value [2] was “negative for schistosomiasis”.
